For assay [1], the target named is T1, human D2L receptor (Homo sapiens, UniProt P14416).
T1 construct: expressed in transfected cells
The assay can be described thus: D2R radioligand binding, [3H]N-methylspiperone, HEK293 membranes.

Assay [2] concerns the target T2, human D3 receptor (Homo sapiens, UniProt P35462).
T2 construct: expressed in transfected cells
The assay can be described thus: D3R radioligand binding, [3H]N-methylspiperone, HEK293 membranes. The following applies: for D2R Ki / D3R Ki: ratio of Ki values.

In assay [3] the target is T3, 5-HT2B (Homo sapiens, UniProt P41595). The assay can be described thus: 5-HT2B IP-1, agonist. The assay is classed as cell-based. The following applies: agonist mode.
T3 sequence (P41595 whole entry, species assumed): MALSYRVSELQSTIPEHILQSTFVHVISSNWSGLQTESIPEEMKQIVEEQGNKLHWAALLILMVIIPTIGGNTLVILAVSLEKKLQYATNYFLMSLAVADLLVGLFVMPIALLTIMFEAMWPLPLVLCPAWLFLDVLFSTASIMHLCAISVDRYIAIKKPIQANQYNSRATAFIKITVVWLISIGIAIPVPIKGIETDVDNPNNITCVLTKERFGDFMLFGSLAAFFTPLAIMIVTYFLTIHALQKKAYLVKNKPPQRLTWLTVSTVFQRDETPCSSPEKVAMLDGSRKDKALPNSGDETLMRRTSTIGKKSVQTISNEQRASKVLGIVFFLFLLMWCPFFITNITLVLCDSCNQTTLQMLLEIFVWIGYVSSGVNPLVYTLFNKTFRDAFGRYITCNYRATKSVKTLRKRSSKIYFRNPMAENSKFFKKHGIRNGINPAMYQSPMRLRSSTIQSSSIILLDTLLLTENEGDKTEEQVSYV
Assay [4] has as its target T3, 5-HT2B. The assay can be described thus: 5-HT2B IP-1, antagonist. It counts as cell-based.
Assay [5] deals with T4, D2LR (Homo sapiens, UniProt P14416).
T4 construct: expressed in transfected cells; host or cells: HEK 293T, transient
T4 sequence (P14416 whole entry): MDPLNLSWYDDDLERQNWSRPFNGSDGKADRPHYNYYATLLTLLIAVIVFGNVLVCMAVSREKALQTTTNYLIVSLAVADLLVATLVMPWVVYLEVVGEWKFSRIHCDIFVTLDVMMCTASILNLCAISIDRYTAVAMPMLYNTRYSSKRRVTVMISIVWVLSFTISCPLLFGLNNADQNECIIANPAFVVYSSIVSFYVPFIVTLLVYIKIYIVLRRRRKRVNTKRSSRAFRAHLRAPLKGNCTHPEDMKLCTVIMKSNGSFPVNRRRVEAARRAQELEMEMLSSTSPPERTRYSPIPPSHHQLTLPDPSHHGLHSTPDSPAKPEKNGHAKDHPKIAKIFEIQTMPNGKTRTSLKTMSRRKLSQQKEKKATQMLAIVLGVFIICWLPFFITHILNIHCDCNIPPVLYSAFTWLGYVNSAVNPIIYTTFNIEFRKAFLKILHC
The assay is classed as cell-based. The settings on record: miniG recruitment assay.

Assay [6] relates to cocaine self-administration in rats. The settings on record: general knowledge statement; cited from earlier work.
Setting [7] is: [3H]N-methylspiperone, mean ± SEM of at least three experiments, read-out: D3R Ki ± SEM.

Like-named read-outs stand apart in the source and are kept apart here.

T2 sequence (P35462 whole entry): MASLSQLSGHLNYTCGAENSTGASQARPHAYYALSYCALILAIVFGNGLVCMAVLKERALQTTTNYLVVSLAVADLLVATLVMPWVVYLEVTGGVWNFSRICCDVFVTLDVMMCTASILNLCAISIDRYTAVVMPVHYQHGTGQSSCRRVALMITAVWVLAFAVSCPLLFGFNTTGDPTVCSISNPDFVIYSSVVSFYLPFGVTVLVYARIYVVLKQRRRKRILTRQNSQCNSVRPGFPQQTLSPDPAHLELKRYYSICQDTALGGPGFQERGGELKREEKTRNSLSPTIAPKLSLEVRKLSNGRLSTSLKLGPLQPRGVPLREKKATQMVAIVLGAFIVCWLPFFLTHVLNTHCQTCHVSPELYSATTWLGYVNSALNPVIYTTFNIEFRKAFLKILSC
T1 sequence (P14416 whole entry): as the sequence (P14416 whole entry) above

Consider `COc1ccccc1N1CCN(CC[C@H]2CC[C@H](NC(=O)N(C)C)CC2)CC1` [Compound 6f, 3-(trans-4-(2-(4-(2-Methoxyphenyl)piperazin-1-yl)ethyl)cyclohexyl)-1,1-dimethylurea], for which the Ki in assay [1] was 6.07 ± 2.32 nM; in assay [2], 1.01 ± 0.32 nM. The “D2R Ki / D3R Ki” value in assay [2] ([3H]N-methylspiperone) stood at 6.0.
For `CN(C)C(=O)N[C@H]1CC[C@H](CCN2CCN(c3ccc(Cl)cc3)CC2)CC1` [Compound 6g, 3-(trans-4-(2-(4-(4-Chlorophenyl)piperazin-1-yl)ethyl)cyclohexyl)-1,1-dimethylurea], the inhibition constant Ki in assay [1] was determined as 337 ± 24 nM; in assay [2], 33.8 ± 0.8 nM.
Take `CN(C)C(=O)N[C@H]1CC[C@H](CCN2CCN(c3ncccn3)CC2)CC1` [Compound 6h, 1,1-Dimethyl-3-(trans-4-(2-(4-(pyrimidin-2-yl)piperazin-1-yl)ethyl)cyclohexyl)urea]: the Ki was found to be 3440 ± 464 nM in assay [1] and 600 ± 136 nM in assay [2]. Moreover, the “D2R Ki / D3R Ki” value in assay [2] ([3H]N-methylspiperone) came to 5.7.
The matching figures for `CN(C)C(=O)N[C@H]1CC[C@H](CCN2CCN(c3nsc4ccccc34)CC2)CC1` [Compound 6i, 3-(trans-4-(2-(4-(Benzo[d]isothiazol-3-yl)piperazin-1-yl)ethyl)cyclohexyl)-1,1-dimethylurea]: 4.43 ± 0.38 nM, 4.17 ± 0.33 nM and 1.1.
In the case of `CN(C)C(=O)N[C@H]1CC[C@H](CCN2CCC(c3noc4cc(F)ccc34)CC2)CC1` [Compound 6j, 3-(trans-4-(2-(4-(6-Fluorobenzo[d]isoxazol-3-yl)piperidin-1-yl)ethyl)cyclohexyl)-1,1-dimethylurea], the figures for the Ki in assay [1] and in assay [2] were 5.26 ± 1.56 nM and 5.37 ± 0.72 nM, respectively. The “D2R Ki / D3R Ki” value in assay [2] ([3H]N-methylspiperone) came to 1.0.
The matching figures for `CN(C)C(=O)N[C@H]1CC[C@H](CCN2CCN(c3ccc4oc(C(N)=O)cc4c3)CC2)CC1` [Compound 6k, 5-(4-(2-(trans-4-(3,3-Dimethylureido)cyclohexyl)ethyl)piperazin-1-yl)benzofuran-2-carboxamide]: 61100 ± 35100 nM, 1460 ± 270 nM and 41.9.
Turning to `CCc1cccc(N2CCN(CC[C@H]3CC[C@H](NC(=O)c4cc5ccccc5[nH]4)CC3)CC2)c1Cl` [Compound 10b, N-(trans-4-(2-(4-(2-Chloro-3-ethylphenyl)piperazin-1-yl)ethyl)cyclohexyl)indole-2-carboxamide], in assay [1] (read-out: D2R Ki ± SEM), the Ki was determined as 7.8 ± 1.9 nM.
As to `COCCC(=O)N[C@H]1CC[C@H](CCN2CCN(c3cccc(C(F)(F)F)n3)CC2)CC1` [Compound 13d], the results for the “5-HT2B IP-1 Emax ± SEM” value in assay [3] and in assay [4] were 6.66 ± 0.91% and 95.6 ± 2.0%, respectively. Moreover, in assay [3] (read-out: 5-HT2B IP-1 EC50 ± SEM), the EC50 amounted to 37 ± 10 nM. In addition, in assay [4] (read-out: 5-HT2B IP-1 IC50 ± SEM), the IC50 was 460 ± 100 nM.
For `COC(=O)N[C@H]1CC[C@H](CCN2CCN(c3cccc(Cl)c3Cl)CC2)CC1` [Compound 14a, Methyl (trans-4-(2-(4-(2,3-dichlorophenyl)piperazin-1-yl)ethyl)cyclohexyl)carbamate], the Ki in assay [1] (read-out: D2R Ki ± SEM) is 3.72 ± 0.02 nM; in assay [2] (setting [7]), 0.323 ± 0.075 nM. The “D2R Ki / D3R Ki” value in assay [2] ([3H]N-methylspiperone) is on record as 11.5.
In the case of `CCOC(=O)N[C@H]1CC[C@H](CCN2CCN(c3cccc(Cl)c3Cl)CC2)CC1` [Compound 14b, Ethyl (trans-4-(2-(4-(2,3-dichlorophenyl)piperazin-1-yl)ethyl)cyclohexyl)carbamate], the Ki was determined as 8.4 ± 2.43 nM in assay [1] (read-out: D2R Ki ± SEM) and 0.965 ± 0.129 nM in assay [2] (setting [7]).
Regarding `CCCOC(=O)N[C@H]1CC[C@H](CCN2CCN(c3cccc(Cl)c3Cl)CC2)CC1` [Compound 14c, Propyl (trans-4-(2-(4-(2,3-dichlorophenyl)piperazin-1-yl)ethyl)cyclohexyl)carbamate], the Ki in assay [1] (read-out: D2R Ki ± SEM) came to 25 ± 2.1 nM; in assay [2] (setting [7]) it was 1.74 ± 0.17 nM. Also, in assay [2] ([3H]N-methylspiperone), the “D2R Ki / D3R Ki” value is 14.4.
As for `COCC(=O)N[C@H]1CC[C@H](CCN2CCN(c3cccc(Cl)c3Cl)CC2)CC1` [Compound 14d, N-(trans-4-(2-(4-(2,3-Dichlorophenyl)piperazin-1-yl)ethyl)cyclohexyl)-2-methoxyacetamide], the Ki was 7.67 ± 0.69 nM in assay [1] (read-out: D2R Ki ± SEM), no more than 1 nM in assay [2] and 0.268 ± 0.065 nM in assay [2] (setting [7]). Further, in assay [2] ([3H]N-methylspiperone), the “D2R Ki / D3R Ki” value stood at 28.6.
Turning to `CCOCC(=O)N[C@H]1CC[C@H](CCN2CCN(c3cccc(Cl)c3Cl)CC2)CC1` [Compound 14e, N-(trans-4-(2-(4-(2,3-Dichlorophenyl)piperazin-1-yl)ethyl)cyclohexyl)-2-ethoxyacetamide], the Ki was 41.3 ± 3.9 nM in assay [1] (read-out: D2R Ki ± SEM), no more than 1 nM in assay [2] and 1.06 ± 0.32 nM in assay [2] (setting [7]).
With `COCCCC(=O)N[C@H]1CC[C@H](CCN2CCN(c3cccc(Cl)c3Cl)CC2)CC1` [Compound 14f, N-(trans-4-(2-(4-(2,3-Dichlorophenyl)piperazin-1-yl)ethyl)cyclohexyl)-4-methoxybutanamide], the Ki stood at 21.7 ± 3.8 nM in assay [1] (read-out: D2R Ki ± SEM) and 1.15 ± 0.29 nM in assay [2] (setting [7]). Further, the “D2R Ki / D3R Ki” value in assay [2] ([3H]N-methylspiperone) is on record as 18.9.
`CN(C)CC(=O)N[C@H]1CC[C@H](CCN2CCN(c3cccc(Cl)c3Cl)CC2)CC1` [Compound 14g, N-(trans-4-(2-(4-(2,3-dichlorophenyl)piperazin-1-yl)ethyl)cyclohexyl)-2-(dimethylamino)acetamide]: the Ki came out at 3.72 ± 0.46 nM in assay [1] (read-out: D2R Ki ± SEM) and 0.398 ± 0.084 nM in assay [2] (setting [7]).
As for `CCC(=O)N[C@H]1CC[C@H](CCN2CCN(c3cccc(Cl)c3Cl)CC2)CC1` [Compound 14i, N-(trans-4-(2-(4-(2,3-Dichlorophenyl)piperazin-1-yl)ethyl)cyclohexyl)propionamide], the Ki in assay [1] (read-out: D2R Ki ± SEM) came out at 6.06 ± 1.07 nM; in assay [2] (setting [7]), 0.447 ± 0.119 nM. Further, the “D2R Ki / D3R Ki” value in assay [2] ([3H]N-methylspiperone) came out at 13.6.
The matching figures for `CCCC(=O)N[C@H]1CC[C@H](CCN2CCN(c3cccc(Cl)c3Cl)CC2)CC1` [Compound 14j, N-(trans-4-(2-(4-(2,3-Dichlorophenyl)piperazin-1-yl)ethyl)cyclohexyl)butyramide]: 25.6 ± 5.7 nM, 0.875 ± 0.178 nM and 29.3.
As for `CCCCC(=O)N[C@H]1CC[C@H](CCN2CCN(c3cccc(Cl)c3Cl)CC2)CC1` [Compound 14k, N-(trans-4-(2-(4-(2,3-Dichlorophenyl)piperazin-1-yl)ethyl)cyclohexyl)pentanamide], the Ki in assay [1] (read-out: D2R Ki ± SEM) is 51.5 ± 18.6 nM; in assay [2] (setting [7]) it was 2.37 ± 0.6 nM. Further, the “D2R Ki / D3R Ki” value in assay [2] ([3H]N-methylspiperone) was 21.7.
In the case of `O=C1OCCCN1[C@H]1CC[C@H](CCN2CCN(c3cccc(Cl)c3Cl)CC2)CC1` [Compound 34b, 3-(trans-4-(2-(4-(2,3-Dichlorophenyl)piperazin-1-yl)ethyl)cyclohexyl)-1,3-oxazinan-2-one], the Ki was 5.46 ± 2.14 nM in assay [1] (read-out: D2R Ki ± SEM), no more than 1 nM in assay [2] and 0.248 ± 0.101 nM in assay [2] (setting [7]).
For `O=C1NCCN1[C@H]1CC[C@H](CCN2CCN(c3cccc(Cl)c3Cl)CC2)CC1` [Compound 35a, 1-(trans-4-(2-(4-(2,3-Dichlorophenyl)piperazin-1-yl)ethyl)cyclohexyl)imidazolidin-2-one], the Ki is 5.66 ± 0.89 nM in assay [1] (read-out: D2R Ki ± SEM) and 0.438 ± 0.053 nM in assay [2] (setting [7]). Also, in assay [2] ([3H]N-methylspiperone), the “D2R Ki / D3R Ki” value was 12.9.
With `O=C1NCCCN1[C@H]1CC[C@H](CCN2CCN(c3cccc(Cl)c3Cl)CC2)CC1` [Compound 35b, 1-(trans-4-(2-(4-(2,3-Dichlorophenyl)piperazin-1-yl)ethyl)cyclohexyl)tetrahydropyrimidin-2(1H)-one], the values for the Ki in assay [1] (read-out: D2R Ki ± SEM) and in assay [2] (setting [7]) were 19 ± 4.7 nM and 2.97 ± 0.85 nM, respectively.
On the same counts, the results for `O=C1CCCN1[C@H]1CC[C@H](CCN2CCN(c3cccc(Cl)c3Cl)CC2)CC1` [Compound 36a, 1-(trans-4-(2-(4-(2,3-Dichlorophenyl)piperazin-1-yl)ethyl)cyclohexyl)100yrrolidine-2-one] are 4.49 ± 0.78 nM and 0.537 ± 0.167 nM.
On the same counts, the results for `O=C1CCCCN1[C@H]1CC[C@H](CCN2CCN(c3cccc(Cl)c3Cl)CC2)CC1` [Compound 36b, 1-(trans-4-(2-(4-(2,3-Dichlorophenyl)piperazin-1-yl)ethyl)cyclohexyl)piperidin-2-one] are 9.89 ± 2.77 nM and 1.74 ± 0.46 nM.
In the case of `NCCc1ccc(O)c(O)c1` [Dopamine, dopamine, reference compound], the “D2R activity in words, miniG assay” value in assay [5] is “equivalent maximal responses”.
Turning to `O=c1[nH]c2ccccc2n1C1CCN(CCCC(c2ccc(F)cc2)c2ccc(F)cc2)CC1` [pimozide], the “biphasic effects on cocaine self-administration” value in assay [6] is given as “biphasic effects”.
In the case of (+)-butaclamol, the “biphasic effects on cocaine self-administration” value in assay [6] is listed as “biphasic effects”.

The record behind these values is patent US20260356809A1 (The United States of America, as represented by the …, priority 2022, published 2026).
